Patent US9815819B2, “Complement pathway modulators and uses thereof” (priority 2012, dated 2017)

The compounds below were run against Recombinant human factor D (Homo sapiens (Human), UniProt P00746) (assay: Human Complement Factor D Assay: Method 1). Settings: Factor D inhibition, Method 1: 10 nM factor D, 1 hour incubation with compound at room temperature, substrate Z-Lys-thiobenzyl, fluorescence readout; read-out: IC50.
Sequence of Recombinant human factor D (P00746 26-253): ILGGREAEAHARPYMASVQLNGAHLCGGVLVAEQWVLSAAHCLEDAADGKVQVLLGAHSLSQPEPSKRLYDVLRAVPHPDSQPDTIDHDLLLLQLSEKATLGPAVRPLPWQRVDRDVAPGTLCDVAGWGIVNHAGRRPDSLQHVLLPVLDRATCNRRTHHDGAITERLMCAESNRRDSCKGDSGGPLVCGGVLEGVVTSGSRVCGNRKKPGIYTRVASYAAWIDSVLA
Assay type: biochemical
Method: Recombinant human factor D (expressed in E. coli and purified using standard methods) at 10 nM concentration is incubated with test compound at various concentrations for 1 hour at room temperature in 0.1 M Hepes buffer, pH 7.5, containing 1 mM MgCl2, 1 M NaCl and 0.05% CHAPS. […] IC50 values are calculated from percentage of inhibition of complement factor D-activity as a function of test compound concentration.
Compound `NC(=O)c1nn(CC(=O)N2[C@@H]3C[C@@H]3C[C@H]2C(=O)NC2CC2(F)c2ccccc2F)c2ccccc12` (single isomer, unassigned) [Example 50] has an IC50 of 3.88 µM. `NC(=O)c1nn(CC(=O)N2[C@@H]3C[C@@H]3C[C@H]2C(=O)NC2CC2(F)c2ccccc2F)c2ccccc12` (single isomer, unassigned) [Example 51] was tested, and the IC50 was 0.992 µM. Compound `NC(=O)c1nn(CC(=O)N2[C@@H]3C[C@@H]3C[C@H]2C(=O)NC2CC2(F)c2ccccc2F)c2ccccc12` (single isomer, unassigned) [Example 52] has an IC50 of 0.367 µM. With `NC(=O)c1nn(CC(=O)N2[C@@H]3C[C@@H]3C[C@H]2C(=O)NC2CC2(F)c2ccccc2F)c2ccccc12` (single isomer, unassigned) [Example 53] the IC50 was 0.036 µM. With `NC(=O)c1nn(CC(=O)N2[C@@H]3C[C@@H]3C[C@H]2C(=O)NC2CC2c2ccc(F)cc2F)c2ccccc12` (single isomer, unassigned) [Example 74] the IC50 was 3.76 µM. `NC(=O)c1nn(CC(=O)N2[C@@H]3C[C@@H]3C[C@H]2C(=O)NC2CC2c2ccc(F)cc2F)c2ccccc12` (single isomer, unassigned) [Example 75] gave an IC50 of 7.76 µM. Compound `NC(=O)c1nn(CC(=O)N2[C@@H]3C[C@@H]3C[C@H]2C(=O)NC2CC2c2ccc(F)cc2F)c2ccccc12` (single isomer, unassigned) [Example 76] has an IC50 of 0.036 µM. `NC(=O)c1nn(CC(=O)N2[C@@H]3C[C@@H]3C[C@H]2C(=O)NC2CC2c2ccc(F)cc2F)c2ccccc12` (single isomer, unassigned) [Example 77] gave an IC50 of 0.64 µM. `CC(=O)c1nn(CC(=O)N2[C@@H]3C[C@@H]3C[C@H]2C(=O)N[C@H]2C[C@@H]2c2ccccc2)c2ccccc12` [Example 1, (1R,3S,5R)-2-[2-(3-Acetyl-indazol-1-yl)-acetyl]-2-aza-bicyclo[3.1.0]hexane-3-carboxylic acid((1S,2R)-2-phenyl-cyclopropyl)-amide] was tested, and the IC50 was 0.386 µM. With `CC(=O)c1nn(CC(=O)N2[C@@H]3C[C@@H]3C[C@H]2C(=O)N[C@@H]2C[C@H]2c2ccccc2)c2ccccc12` [Example 2, (1R,3S,5R)-2-[2-(3-Acetyl-indazol-1-yl)-acetyl]-2-aza-bicyclo[3.1.0] hexane-3-carboxylic acid ((1R,2S)-2-phenyl-cyclopropyl)-amide] the IC50 was 0.029 µM. Work on `CC(=O)c1nn(CC(=O)N2[C@@H]3C[C@@H]3C[C@H]2C(=O)N[C@@H]2C[C@H]2c2ccccc2)c2ccncc12` [Example 3, (1R,3S,5R)-2-[2-(3-Acetyl-pyrazolo[4,3-c]pyridin-1-yl)-acetyl]-2-aza-bicyclo[3.1.0] hexane-3-carboxylic acid ((1R,2S)-2-phenyl-cyclopropyl)-amide] yielded an IC50 of 0.147 µM. Work on `CC(=O)c1nn(CC(=O)N2[C@@H]3C[C@@H]3C[C@H]2C(=O)N[C@H]2C[C@@H]2c2ccccc2)c2cnccc12` [Example 4, (1R,3S,5R)-2-[2-(3-Acetyl-pyrazolo[3,4-c]pyridin-1-yl)-acetyl]-2-aza-bicyclo[3.1.0] hexane-3-carboxylic acid ((1S,2R)-2-phenyl-cyclopropyl)-amide] yielded an IC50 of 0.702 µM. In the case of `CC(=O)c1nn(CC(=O)N2[C@@H]3C[C@@H]3C[C@H]2C(=O)N[C@@H]2C[C@H]2c2ccccc2)c2cnccc12` [Example 5, (1R,3S,5R)-2-[2-(3-Acetyl-pyrazolo[3,4-c]pyridin-1-yl)-acetyl]-2-aza-bicyclo[3.1.0] hexane-3-carboxylic acid ((1R,2S)-2-phenyl-cyclopropyl)-amide], the IC50 is reported as 0.106 µM. With `CC(=O)c1nn(CC(=O)N2[C@@H]3C[C@@H]3C[C@H]2C(=O)N[C@@H]2C[C@H]2c2ccccc2)c2ncccc12` [Example 8, (1R,3S,5R)-2-[2-(3-Acetyl-pyrazolo[3,4-b]pyridin-1-yl)-acetyl]-2-aza-bicyclo[3.1.0]hexane-3-carboxylic acid ((1R,2S)-2-phenyl-yclopropyl)-amide] the IC50 was 0.123 µM. Compound `NC(=O)c1nn(CC(=O)N2[C@@H]3C[C@@H]3C[C@H]2C(=O)N[C@@H]2C[C@H]2c2ccccc2)c2cnccc12` [Example 9, 1-{2-Oxo-2-[(1R,3S,5R)-3-((1R,2S)-2-phenyl-cyclopropylcarbamoyl)-2-aza-bicyclo[3.1.0]hex-2-yl]-ethyl}-1H-pyrazolo[3,4-c]pyridine-3-carboxylic acid amide] has an IC50 of 0.065 µM. `CO[C@H]1[C@@H](C(=O)N[C@@H]2C[C@H]2c2ccccc2)N(C(=O)Cn2nc(C(C)=O)c3ccccc32)C[C@@H]1F` [Example 10, (2S,3S,4S)-1-[2-(3-Acetyl-indazol-1-yl)-acetyl]-4-fluoro-3-methoxy-pyrrolidine-2-carboxylic acid ((1R,2S)-2-phenyl-cyclopropyl)-amide] showed an IC50 of 0.04 µM. Compound `NC(=O)c1nn(CC(=O)N2[C@@H]3C[C@@H]3C[C@H]2C(=O)N[C@@H]2C[C@H]2c2ccccc2)c2ccccc12` [Example 12, 1-{2-Oxo-2-[(1R,3S,5R)-3-((1R,2S)-2-phenyl-cyclopropylcarbamoyl)-2-aza-bicyclo[3.1.0]hex-2-yl]-ethyl}-1H-indazole-3-carboxylic acid amide] has an IC50 of 0.06 µM. `NC(=O)c1nn(CC(=O)N2[C@@H]3C[C@@H]3C[C@H]2C(=O)N[C@@H]2C[C@H]2c2ccccc2)c2ncccc12` [Example 13, 1-{2-Oxo-2-[(1R,3S,5R)-3-((1R,2S)-2-phenyl-cyclopropylcarbamoyl)-2-aza-bicyclo[3.1.0]hex-2-yl]-ethyl}-1H-pyrazolo[3,4-b]pyridine-3-carboxylic acid amide] was tested, and the IC50 was 0.172 µM. With `NC(=O)c1nn(CC(=O)N2[C@@H]3C[C@@H]3C[C@H]2C(=O)N[C@@H]2C[C@H]2c2ccccc2)c2ccncc12` [Example 14, 1-{2-Oxo-2-[(1R,3S,5R)-3-((1R,2S)-2-phenyl-cyclopropylcarbamoyl)-2-aza-bicyclo[3.1.0]hex-2-yl]-ethyl}-1H-pyrazolo[4,3-c]pyridine-3-carboxylic acid amide] the IC50 was 0.118 µM. `Cc1cc2c(C(N)=O)nn(CC(=O)N3[C@@H]4C[C@@H]4C[C@H]3C(=O)N[C@@H]3C[C@H]3c3ccccc3)c2cn1` [Example 15, 5-Methyl-1-{2-oxo-2-[(1R,3S,5R)-3-((1R,2S)-2-phenyl-cyclopropylcarbamoyl)-2-aza-bicyclo[3.1.0]hex-2-yl]-ethyl}-1H-pyrazolo[3,4-]pyridine-3-carboxylic acid amide] showed an IC50 of 0.115 µM. `NC(=O)c1nn(CC(=O)N2C[C@H](F)C[C@H]2C(=O)N[C@@H]2C[C@H]2c2ccccc2)c2ccncc12` [Example 16, 1-{2-[(2S,4R)-4-Fluoro-2-((1R,2S)-2-phenyl-cyclopropylcarbamoyl)-pyrrolidin-1-yl]-2-oxo-ethyl}-1H-pyrazolo[4,3-c]pyridine-3-carboxylic acid amide] was tested, and the IC50 was 1.24 µM. Compound `NC(=O)c1nn(CC(=O)N2C[C@H](F)C[C@H]2C(=O)N[C@@H]2C[C@H]2c2ccccc2)c2ncccc12` [Example 17, 1-{2-[(2S,4R)-4-Fluoro-2-((1R,2S)-2-phenyl-cyclopropylcarbamoyl)-pyrrolidin-1-yl]-2-oxo-ethyl}-1H-pyrazolo[3,4-b]pyridine-3-carboxylic acid amide] has an IC50 of 0.117 µM. `NC(=O)c1nn(CC(=O)N2C[C@H](F)C[C@H]2C(=O)N[C@@H]2C[C@H]2c2ccccc2)c2ccccc12` [Example 18, 1-{2-[(2S,4R)-4-Fluoro-2-((1R,2S)-2-phenyl-cyclopropylcarbamoyl)-pyrrolidin-1-yl]-2-oxo-ethyl}-1H-indazole-3-carboxylic acid amide] showed an IC50 of 0.044 µM. Work on `CCc1cc2c(C(N)=O)nn(CC(=O)N3[C@@H]4C[C@@H]4C[C@H]3C(=O)N[C@@H]3C[C@H]3c3ccccc3)c2cn1` [Example 19, 5-Ethyl-1-{2-oxo-2-[(1R,3S,5R)-3-((1R,2S)-2-phenyl-cyclopropylcarbamoyl)-2-aza-bicyclo[3.1.0]hex-2-yl]-ethyl}-1H-pyrazolo[3,4-c]pyridine-3-carboxylic acid amide] yielded an IC50 of 0.031 µM. In the case of `NC(=O)c1nn(CC(=O)N2[C@@H]3C[C@@H]3C[C@H]2C(=O)N[C@H]2C[C@@H]2c2ccccc2Cl)c2cnccc12` [Example 21, 1-(2-{(1R,3S,5R)-3-[(1S,2R)-2-(2-Chloro-phenyl)-cyclopropylcarbamoyl]-2-aza-bicyclo[3.1.0]hex-2-yl}-2-oxo-ethyl)-1H-pyrazolo[3,4-c]pyridine-3-carboxylic acid amide], the IC50 is reported as 1.4 µM. Work on `CC(=O)c1nn(CC(=O)N2[C@@H]3C[C@@H]3C[C@H]2C(=O)N[C@]2(C)C[C@H]2c2ccccc2)c2cnccc12` [Example 22, (1R,3S,5R)-2-[2-(3-Acetyl-pyrazolo[3,4-c]pyridin-1-yl)-acetyl]-2-aza-bicyclo[3.1.0] hexane-3-carboxylic acid ((1R,2S)-1-methyl-2-phenyl-cyclopropyl)-amide] yielded an IC50 of 0.87 µM. `CC(=O)c1nn(CC(=O)N2[C@@H]3C[C@@H]3C[C@H]2C(=O)N[C@@]2(C)C[C@@H]2c2ccccc2)c2cnccc12` [Example 23, (1R,3S,5R)-2-[2-(3-Acetyl-pyrazolo[3,4-c]pyridin-1-yl)-acetyl]-2-aza-bicyclo[3.1.0] hexane-3-carboxylic acid ((1S,2R)-1-methyl-2-phenyl-cyclopropyl)-amide] showed an IC50 of 13.2 µM.

Same assay, conditions: IC50 (μM), Factor D inhibition, Method 1: 10 nM factor D, 1 hour incubation with compound at room temperature, substrate Z-Lys-thiobenzyl, fluorescence readout
`NC(=O)c1nn(CC(=O)N2[C@@H]3C[C@@H]3C[C@H]2C(=O)NC2CCCC(c3ccccc3)C2)c2ccccc12` (single isomer, unassigned) [Example 78] showed an IC50 of 2 µM. `NC(=O)c1nn(CC(=O)N2[C@@H]3C[C@@H]3C[C@H]2C(=O)NC2CCCC(c3ccccc3)C2)c2ccccc12` (single isomer, unassigned) [Example 79] showed an IC50 of 0.114 µM. `NC(=O)c1nn(CC(=O)N2[C@@H]3C[C@@H]3C[C@H]2C(=O)NC2CCCC(c3ccccc3)C2)c2ccccc12` (single isomer, unassigned) [Example 80] gave an IC50 of 0.475 µM. Work on `NC(=O)c1nn(CC(=O)N2[C@@H]3C[C@@H]3C[C@H]2C(=O)NC2CCCC(c3ccccc3)C2)c2ccccc12` (single isomer, unassigned) [Example 81] yielded an IC50 of 5.65 µM.
